Key:
Format in all cases: cell-based, Human
A549 = test: MTT cell viability assay, A549; conditions: 48 hours
Description: (§1) Human NSCLC cell lines A549, H1437, H2087, H522, and HCC827 were obtained from the Korean Cell Line Bank (KCLB, Seoul, Korea). These cells were cultured in RPMI-1640 medium (Gibco, N.Y., USA) supplemented with 10% FBS (Gibco) and 1% penicillin-streptomycin (HyClone Laboratories, Logan, Utah, USA). All cell lines were cultured under standard conditions (5% CO2, humid environment, 37° C.). A549 cells were seeded at a density of 1×10^4 cells/well and H1437, H2087, H522, HCC827, and MRCS cells at a density of 2×10^4 cells/well in 96-well plates and were cultured until cells reach approximately 70-80% confluency. The NSCLC cells were treated with plant hormones for 48 hours. Stock solution of each plant hormone was diluted with culture medium, wherein concentrations of DMSO, water, methanol, and ethanol in the culture medium were below 1% (v/v). The half-maximal inhibitory concentration (IC50) was calculated using CompuSyn software (ComboSyn Inc., Paramus, N.J., USA).
(§2) The inhibitory effect of plant hormones and their derivatives was investigated on 5 NSCLC cell lines (A549, H1437, H2087, H522, and HCC827). The NSCLC cells were treated with ABA, Cor, ethephon, GR-24, IAA, KR, MJ, N6b, N6i, oTR, and SS-HCS at concentrations of 0.1, 0.5, 1, 5, 10, 50, and 100 μM. Cell viability and IC50 values for 48 hours were investigated by performing the MTT assay.

A549 cells [1] = test: Measurement of H2O2 content; conditions: oTR 5, 10, and 50 μM, 48 hours, dose-dependent
Description: A549 cells were seeded at a density of 2×10^5 cells/mL in a 6-well plate and treated with oTR (5, 10, and 50 μM) or an equal volume of DMSO (control) for 48 hours. H2O2 content was measured according to a previously described method with some modifications added. Briefly, the cell pellets were extracted with 1 mL of 0.1% TCAA, and the extracts were homogenized and centrifuged at 15,000×g at 4° C. for 10 minutes. Potassium phosphate buffer (10 mM; 0.5 mL) and 1 M KI (1 mL) were added to 0.5 mL of the supernatant. The mixture was then incubated for 15 minutes at room temperature in the dark and measured at 390 nm. For normalization, protein concentration was determined using Bio-Rad protein assay kit with BSA as a standard.

A549 cells [2] = test: BrdU cell proliferation assay
Description: The siRNA sequences for ERK1/2 (5′-CCCUGACCCGUCUAAUA-3′ SEQ ID NO: 1), AKT (5′-GAAGGAAGU CAUCGUGCCCAA-3′ SEQ ID NO: 2), and scrambled siRNA (SN-1001-CFG) were purchased from Bioneer (Daejeon, Korea). Cells were transfected with siRNA using Lipofectamine 3000 (Invitrogen, Carlsbad, Calif., USA) according to the manufacturer's instructions.
The 5-bromo-2-deoxyuridine (BrdU) cell proliferation assay was performed according to a previously described method. A549 cells (1×10^4) were grown to approximately 70-80% confluency in 96-well plates and treated with oTR (5, 10, and 50 μM) for 48 hours in the presence or absence of U0126, wortmannin, siERK1/2, and siAKT. Cell proliferation was measured using the Cell Proliferation ELISA, BrdU (colorimetric) kit (Roche Diagnostics, Penzberg, Germany), according to the manufacturer's instructions.

NSCLC cells = test: MTT cell viability assay, NSCLC cells overall
Description: as §1, §2

[3] = system: p-ERK, p-AKT, cleaved caspase-3, LC-III in A549 cells; test: Immunoblot analysis of cell lysates; conditions: NSCLC cells
Description: The immunoblot analysis was carried out according to a previously described method. A549 cells (4×10^5) were grown to approximately 70-80% confluency and treated with oTR (5, 10, and 50 μM) for 48 hours. The cell lysates and tissue lysates were prepared and subjected to SDS-PAGE for immunoblotting with the respective antibodies. Anti-caspase-3 (9662), anti-p-AKT (4058), and anti-AKT (9272) antibodies were purchased from Cell Signaling Technology (Danvers, Mass., USA). Anti-ERK1/ERK2 (MAB1576) and anti-p-ERK1/ERK2 (AF1018) were purchased from R&D Systems (Minneapolis, Minn., USA). Anti-LC-III (NB100-2331) antibody was purchased from Novus Biologicals (Littleton, Colo., USA). Anti-β-actin (sc-47778) and anti-GAPDH (sc-47724) antibody was purchased from Santa Cruz Biotechnology (Santa Cruz, Calif., USA).

Question: How did the IC50 (A549) turn out when `OC[C@H]1O[C@@H](n2cnc3c(NCc4ccccc4O)ncnc32)[C@H](O)[C@@H]1O` [oTR, ortho topolin riboside] was run?
Answer: 34.3 ± 4.4 µM

Question: And the H2O2 content (A549 cells [1])?
Answer: significantly increased

Question: And the “antiproliferative effect of oTR in presence of ERK inhibitors (U0126) or AKT inhibitors (wortmannin)” value (A549 cells [2]; U0126 (20 μM) or wortmannin (5 μM), FIG. 6D)?
Answer: significantly weakened

Question: What about the “cell proliferation (BrdU)” value (A549 cells [2]; oTR 5, 10, and 50 μM, 48 hours, dose-dependent, FIG. 6A) of the same compound?
Answer: significantly inhibited

Question: And the “oTR-induced antiproliferative activity in ERK or AKT knockdown cells” value (A549 cells [2]; siERK 1/2 (200 nM) or siAKT (200 nM), FIG. 6D)?
Answer: significantly inhibited

Question: And the “viability of NSCLC cells” value (NSCLC cells; 48 hours of oTR treatment, FIG. 1)?
Answer: reduced

Question: What about the “IC50 values compared among all tested plant hormones and derivatives” value (NSCLC cells; 48 hours, MTT assay) of the same compound?
Answer: lowest IC50 values

Question: And the “cleaved caspase-3” value ([3]; 50 μM oTR)?
Answer: significantly increased

Question: What about the “level of LC-III, an autophagy marker” value ([3]; FIG. 6C) of the same compound?
Answer: did not change

Question: What about the “phosphorylated AKT (p-AKT)” value ([3]; oTR 48 hours) of the same compound?
Answer: significantly decreased

Question: And the “phosphorylated ERK1/2 (p-ERK)” value ([3]; oTR 48 hours)?
Answer: significantly decreased

Reference: US20230241088A1, “COMPOSITION FOR PREVENTING OR TREATING LUNG CANCER COMPRISING ORTHO-TOPOLIN RIBOSIDE AS ACTIVE INGREDIENT” (CHUNG-ANG UNIVERSITY INDUSTRY-ACADEMY COOPERATION FOUNDATION, priority 2022, published 2023)
